Results from article PMC11171218, “N-Benzylated 5-Hydroxybenzothiophene-2-carboxamides as Multi-Targeted Clk/Dyrk Inhibitors and Potential Anticancer Agents” (Cancers, 2024).

Experiments:
Clk1 = Clk1 (Homo sapiens, UniProt P49759); experiment: Z'-LYTE kinase inhibition assay, Clk1; format: biochemical; details: for IC50: ATP conc. equivalent to Km; for inhibition at 1 µM: read-out: Clk1 % Inh. At 1 µM
Text: (§1) 3. Experimental procedure for protein kinases and inhibition assays.
(§2) 3.1 The Z ́ -LYTE biochemical assay for screening and IC 50 determination for Clk1, Dyrk1A, Dyrk1B, Clk2 and Clk3 kinases.
(§3) The assay employs a fluorescence-based, coupled-enzyme format and is based on the differential sensitivity of phosphorylated and non-phosphorylated peptides to proteolytic cleavage. The peptide substrate is labeled with two fluorophores-one at each end-that make up a FRET pair. In the primary reaction, the kinase transfers the gamma-phosphate of ATP to a single tyrosine, serine, or threonine residue in a synthetic FRET-peptide. In the secondary reaction, a site-specific protease recognizes and cleaves non-phosphorylated FRET-peptides. Phosphorylation of FRET-peptides suppresses cleavage by the Development Reagent. Cleavage disrupts FRET between the donor (i.e., coumarin) and acceptor (i.e., fluorescein) fluorophores on the FRET-peptide, whereas uncleaved, phosphorylated FRET-peptides maintain FRET. A ratiometric method, which calculates the ratio (the Emission Ratio) of donor emission to acceptor emission after excitation of the donor fluorophore at 400 nm, is used to quantitate reaction progress. Both cleaved and uncleaved FRET-peptides contribute to the fluorescence signals and therefore to the Emission Ratio. The extent of phosphorylation of the FRET-peptide can be calculated from the Emission Ratio. The Emission Ratio will remain low if the FRET-peptide is phosphorylated (i.e., no kinase inhibition) and will be high if the FRET-peptide is non-phosphorylated (i.e., kinase inhibition).
(§4) The IC 50 values were determined for compounds displaying significant % inhibition in the screening step. IC 50 determination was done through testing at a range of concentrations with two […]
two independent experiments.
3.1.1 Clk1 kinase assay specific conditions:
The 2x Clk1 / Ser/Thr 09 mixture is prepared in 50 mM HEPES pH 7.5, 0.01% BRIJ-35, 10 mM MgCl 2, 1 mM EGTA. The final 10 μL kinase reaction consists of 30 - 120 ng Clk1 and 2 μM Ser/Thr 09 in 50 mM HEPES pH 7.5, 0.01% BRIJ-35, 10 mM MgCl 2, 1 mM EGTA. After the 1 h

T24 cells = experiment: CCK-8 cell viability, T24; format: cell-based; details: Homo sapiens, T-24, 72 h; for inhibition at 20 µM: CCK-8, mean ± S.E.M. (n = 3), read-out: T24 % Inh. at μM; for IC50: CCK-8, 50% inhibition of viability
Protocol: (§5) All cells were purchased from Bioresource Collection and Research Center (Hsinchu, Taiwan) and cultured in corresponding media supplemented with 10% fetal bovine serum, 1 × Antibiotic-Antimycotic at 37 °C in a humidified incubator with 5% CO2. […] T24 cells were cultured in McCoy’s 5a media. IEC-6 cells were cultured in DMEM media supplemented with 5% fetal bovine serum, 1 × Antibiotic–Antimycotic, and 0.1 unit/mL insulin.
(§6) Cells were incubated with the Cell Counting Kit-8 (CCK-8) reagent (TargetMol, Boston, MA, USA) at 37 °C for 2 h. The cell viability was determined by spectrophotometer at 450 nm.

A549 cells = experiment: CCK-8 cell viability, A549; format: cell-based; details: Homo sapiens, 72 h, CCK-8, mean ± S.E.M. (n = 3), read-out: A549 % Inh. at μM
Protocol: as §5, §6

GSG2 (Haspin) = target: T1, GSG2 (Haspin) (Homo sapiens, UniProt Q8TF76); experiment: Adapta universal kinase assay, Haspin; format: biochemical; details: for inhibition at 1 µM: 1 µM compound, screening by Thermo Fisher Scientific; for IC50: ATP concentration equivalent to Km (25 μM ATP)
T1 construct: purchased Thermo Fisher Scientific, Madison, WI, USA (assay run there)
T1 sequence (Q8TF76 1-798): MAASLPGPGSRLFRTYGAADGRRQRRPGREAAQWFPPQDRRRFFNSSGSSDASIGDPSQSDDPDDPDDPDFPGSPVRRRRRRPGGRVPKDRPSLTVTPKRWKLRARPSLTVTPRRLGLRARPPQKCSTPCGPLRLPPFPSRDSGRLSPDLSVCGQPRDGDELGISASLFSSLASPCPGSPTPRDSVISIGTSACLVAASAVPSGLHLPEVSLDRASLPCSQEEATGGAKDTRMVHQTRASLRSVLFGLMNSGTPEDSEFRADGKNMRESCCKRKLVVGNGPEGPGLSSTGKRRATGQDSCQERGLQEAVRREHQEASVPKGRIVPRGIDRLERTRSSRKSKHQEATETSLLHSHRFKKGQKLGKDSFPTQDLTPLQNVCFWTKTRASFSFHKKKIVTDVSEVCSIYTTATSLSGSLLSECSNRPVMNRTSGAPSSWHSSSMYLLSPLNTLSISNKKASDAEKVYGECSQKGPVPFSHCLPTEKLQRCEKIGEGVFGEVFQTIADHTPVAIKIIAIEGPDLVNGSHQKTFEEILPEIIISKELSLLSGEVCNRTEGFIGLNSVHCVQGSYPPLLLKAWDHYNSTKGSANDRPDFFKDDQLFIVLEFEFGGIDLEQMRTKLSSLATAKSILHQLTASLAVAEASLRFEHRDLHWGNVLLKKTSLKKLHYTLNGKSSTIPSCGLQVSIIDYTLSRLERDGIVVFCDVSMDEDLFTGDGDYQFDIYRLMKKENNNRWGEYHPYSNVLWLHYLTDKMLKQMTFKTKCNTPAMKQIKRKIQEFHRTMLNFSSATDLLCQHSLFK
Protocol: 3.2 The Adapta universal kinase assay for screening and IC 50 determination against haspin.
The haspin kinase assay was done at Thermo Fisher Scientific, Madison, WI, USA using a fluorescence-based immunoassay known as ‘The Adapta Universal Kinase Assay’, which detects the ADP produced by kinases utilizing the TR-FRET technology. The final 10 μL kinase reaction consists of 0.25 - 1 ng GSG2 (Haspin) and 100 μM of the substrate (Histone H3 (1-20) peptide) in […]
μM ATP. After an incubation time of 1 h at RT, 5 μL of a detection mix was added.
To determine the half maximal inhibitory concentration (IC 50), the assays were performed in duplicate in the absence or presence of increasing doses of the tested compounds.

Clk2 = Clk2 (Homo sapiens, UniProt P49760); experiment: Z'-LYTE kinase inhibition assay, Clk2; format: biochemical; details: for inhibition at 1 µM: 1 µM compound, screening by Thermo Fisher Scientific; for IC50: ATP concentration equivalent to Km
Text: as §1, §2, §3, §4
two independent experiments. […]
Development Reagent A is added.
3.1.4 Clk2 kinase assay specific conditions:
The 2X Clk2 / Ser/Thr 06 mixture is prepared in 50 mM HEPES pH 7.5, 0.01% BRIJ-35, 10 mM […]
Ser/Thr 06 in 50 mM HEPES pH 7.5, 0.01% BRIJ-35, 10 mM MgCl2, 1 mM EGTA. […]
MgCl2, 1 mM EGTA, 0.02% NaN3. […]

Clk2, sequence (P49760 whole entry): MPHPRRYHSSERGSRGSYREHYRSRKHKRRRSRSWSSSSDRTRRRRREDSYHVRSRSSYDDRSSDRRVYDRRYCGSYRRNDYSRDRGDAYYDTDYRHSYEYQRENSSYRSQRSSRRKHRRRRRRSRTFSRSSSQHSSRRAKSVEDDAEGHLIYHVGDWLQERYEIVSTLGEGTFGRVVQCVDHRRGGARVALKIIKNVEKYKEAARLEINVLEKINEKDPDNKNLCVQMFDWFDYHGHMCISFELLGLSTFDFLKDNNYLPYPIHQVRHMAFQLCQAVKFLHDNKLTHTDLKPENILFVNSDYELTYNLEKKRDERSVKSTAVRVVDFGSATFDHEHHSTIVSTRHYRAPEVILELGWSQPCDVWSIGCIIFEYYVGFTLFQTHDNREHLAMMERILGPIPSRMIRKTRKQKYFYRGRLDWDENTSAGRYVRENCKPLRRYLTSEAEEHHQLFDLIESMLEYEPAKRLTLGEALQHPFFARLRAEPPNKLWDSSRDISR
Clk1, sequence (P49759 whole entry): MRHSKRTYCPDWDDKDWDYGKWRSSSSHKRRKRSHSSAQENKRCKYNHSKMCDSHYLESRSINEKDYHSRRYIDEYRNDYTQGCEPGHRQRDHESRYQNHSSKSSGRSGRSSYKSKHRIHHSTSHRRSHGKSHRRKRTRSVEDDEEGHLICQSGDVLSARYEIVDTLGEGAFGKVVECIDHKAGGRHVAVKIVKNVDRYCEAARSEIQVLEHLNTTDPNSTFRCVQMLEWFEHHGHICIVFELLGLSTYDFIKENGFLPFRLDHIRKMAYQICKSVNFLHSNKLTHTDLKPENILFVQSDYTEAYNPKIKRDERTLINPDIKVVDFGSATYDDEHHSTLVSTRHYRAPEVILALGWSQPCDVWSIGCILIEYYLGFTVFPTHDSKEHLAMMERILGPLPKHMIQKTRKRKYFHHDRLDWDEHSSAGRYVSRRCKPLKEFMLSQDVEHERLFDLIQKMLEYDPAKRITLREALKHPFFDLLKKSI

| Compound | IC50 (Clk1) | inhibition at 1 µM (Clk1) | IC50 (T24 cells) | inhibition at 1 µM (GSG2 (Haspin)) | inhibition at 1 µM (Clk2) | IC50 (GSG2 (Haspin)) | IC50 (Clk2) | Improvement in inhibitory activity against Clk1 compared to compound 1 (Clk1; ratio of IC50 vs compound 1) | inhibition at 20 µM (T24 cells) | inhibition at 20 µM (A549 cells) |
| --- | --- | --- | --- | --- | --- | --- | --- | --- | --- | --- |
| COc1ccccc1CNC(=O)c1cc2cc(O)ccc2s1 [Compound 11, 5-Hydroxy-N-(2-methoxybenzyl)benzo[b]thiophene-2-carboxamide] | 0.725 µM | 60% | – | 46% | 50% | – | – | – | 55.3 ± 3.3% | 34.7 ± 3.91% |
| COc1cccc(CNC(=O)c2cc3cc(O)ccc3s2)c1 [Compound 12, 5-Hydroxy-N-(3-methoxybenzyl)benzo[b]thiophene-2-carboxamide] | 0.153 µM | 86% | 6 µM | 85% | 62% | 0.167 µM | 0.617 µM | – | 100% | 41 ± 8.96% |
| O=C(NCc1cc(F)cc(F)c1)c1cc2cc(O)ccc2s1 [Compound 17, N-(3,5-Difluorobenzyl)-5-hydroxybenzo[b]thiophene-2-carboxamide] | 0.168 µM | 85% | 14.9 µM | 80% | 62% | 0.256 µM | 0.708 µM | 4 fold | 59.9 ± 2.05% | 38.8 ± 4.06% |

Continued, in another order:

| IC50 (Clk1) | inhibition at 1 µM (Clk1) | IC50 (T24 cells) | inhibition at 1 µM (GSG2 (Haspin)) | inhibition at 1 µM (Clk2) | IC50 (GSG2 (Haspin)) | IC50 (Clk2) | Improvement in inhibitory activity against Clk1 compared to compound 1 (Clk1; ratio of IC50 vs compound 1) | Compound | inhibition at 20 µM (T24 cells) | inhibition at 20 µM (A549 cells) |
| --- | --- | --- | --- | --- | --- | --- | --- | --- | --- | --- |
| 0.257 µM | 79% | 14 µM | 54% | 46% | – | – | – | O=C(NCc1cccc(Cl)c1)c1cc2cc(O)ccc2s1 [Compound 3, N-(3-Chlorobenzyl)-5-hydroxybenzo[b]thiophene-2-carboxamide] | 68.6 ± 3.95% | 54.7 ± 3.77% |
| 0.41 µM | 72% | – | 83% | 38% | 0.207 µM | – | – | O=C(NCc1cccc(F)c1)c1cc2cc(O)ccc2s1 [Compound 6, N-(3-Fluorobenzyl)-5-hydroxybenzo[b]thiophene-2-carboxamide] | 49.3 ± 6.04% | 36.5 ± 1.57% |
